Source: patent US4554289A, “OF4949” (Takara Shuzo Co., Ltd., priority 1982, dated 1985)

Assays:
[1] = tested on: cellular immunity (delayed type hypersensitivity to sheep erythrocytes); assay: Delayed type hypersensitivity (DTH) to sheep erythrocytes, hind paw edema (cellular immunity); type: in vivo, CDF1 strain female mice; conditions: for Thickness of Edema (Mean Value ± Standard Error): hind paw, 24 hours after challenge; for Potentiating Ratio to Control: control = 100
Description: Thus, sheep erythrocytes are used as antigen and 1×10^5 of them are subjected to intravenous injection to CDF1 strain female mice of 10 weeks of age (8 mice per group) and, immediately after the sensitization, a solution of OF4949 or derivatives thereof in a sterilized water is injected intraperitoneally with dosages of 5, 50 or 500 μg/kg and, after four days, 10^8 sheep erythrocytes are injected subcutaneously into left hind paws of the mice. After 24 hours, the degree of edema, i.e. thickness of the paws at that time, observed at the hind paws is measured using a slide calipers.

[2] = Neutral, acidic or basic properties; type: physicochemical
[3] = Solubilities; type: physicochemical
[4] = tested on: ICR strains of mice; assay: Acute toxicity test, 300 mg/kg intraperitoneally; type: in vivo
Description: The compounds of the present invention are also characterized by a very low toxicity, making their administration to humans and animals facile. Acute toxicity tests injecting 300 mg/kg intraperitoneally of representative compounds of the present invention to ICR strains of mice produced the toxicity results set forth in Table 9 below: […]

[5] = in methyl alcohol and ethyl alcohol
[6] = in n-propyl alcohol, n-butyl alcohol, acetone, ethyl acetate, chloroform, ether, benzene, and hexane
[7] = in water, alkaline water, and dimethyl sulfoxide

SMILES	Thickness of Edema (Mean Value ± Standard Error) ([1]; 5 μg/kg intraperitoneally)	Potentiating Ratio to Control ([1]; 5 μg/kg intraperitoneally)	Thickness of Edema (Mean Value ± Standard Error) ([1]; 50 μg/kg intraperitoneally)	Potentiating Ratio to Control ([1]; 50 μg/kg intraperitoneally)	Thickness of Edema (Mean Value ± Standard Error) ([1]; 500 μg/kg intraperitoneally)	Potentiating Ratio to Control ([1]; 500 μg/kg intraperitoneally)	Neutral, acidic or basic properties [2]	Solubility [3, 5]	Solubility [3, 6]	Solubility [3, 7]	Acute toxicity test result [4]
NC1Cc2ccc(O)c(c2)Oc2ccc(cc2)CC(C(=O)O)NC(=O)C(C(O)C(=O)O)NC1=O (stereo not drawn) [Compound 2]	9.3 ± 1.2 × 0.1 mm	116%	9.1 ± 1.1 × 0.1 mm	114%	10.2 ± 0.9 × 0.1 mm	128%	–	–	–	–	–
COc1ccc2cc1Oc1ccc(cc1)CC(C(N)=O)NC(=O)C(C(O)C(N)=O)NC(=O)C(N)C2 (stereo not drawn) [Compound 17]	8.8 ± 0.7 × 0.1 mm	126%	8.4 ± 0.7 × 0.1 mm	120%	8.5 ± 0.7 × 0.1 mm	121%	–	–	–	–	–
COc1ccc2cc1Oc1ccc(cc1)CC(C(=O)O)NC(=O)C(C(O)C(=O)O)NC(=O)C(N)C2 (stereo not drawn) [Compound 18]	8.2 ± 0.7 × 0.1 mm	117%	8.5 ± 0.7 × 0.1 mm	121%	7.5 ± 0.6 × 0.1 mm	107%	–	–	–	–	–
COc1ccc2cc1Oc1ccc(cc1)CC(CO)NC(=O)C(C(O)CO)NC(=O)C(N)C2 (stereo not drawn) [Compound 21]	7.8 ± 0.8 × 0.1 mm	111%	7.8 ± 0.7 × 0.1 mm	111%	8.7 ± 0.8 × 0.1 mm	124%	–	–	–	–	–
NC(=O)C(O)C1NC(=O)C(N)Cc2ccc(O)c(c2)Oc2ccc(cc2)CC(C(=O)O)NC1=O (stereo not drawn) [OF4949-II]	11.7 ± 1.9 × 0.1 mm	127%	13.5 ± 1.2 × 0.1 mm	147%	11.4 ± 2.6 × 0.1 mm	124%	amphoteric	hardly soluble	insoluble	soluble	–
COc1ccc2cc1Oc1ccc(cc1)CC(C(=O)O)NC(=O)C(C(O)C(N)=O)NC(=O)C(N)C2 (stereo not drawn) [OF4949-I]	9.5 ± 0.6 × 0.1 mm	132%	11.7 ± 1.5 × 0.1 mm	163%	9.1 ± 0.5 × 0.1 mm	126%	amphoteric	hardly soluble	insoluble	soluble	No toxicity is observed
